According to patent publication US20260265238A1, “COMPOUNDS AND PHARMACEUTICAL COMPOSITIONS THAT DEGRADE SWI/SNF-RELATED MATRIX-ASSOCIATED ACTIN-DEPENDENT REGULATOR OF CHROMATIN SUBFAMILY A” (Plexium, Inc., priority 2023, published 2026):

Key:
[1] = target: T1, SMARCA4-HiBiT HeLa cells (protein which is expressed from the SMARCA4 gene) (Homo sapiens, UniProt P51532); assay: SMARCA4 degradation assay (HiBiT-fusion HeLa cell line, 24 h, luminescence); type: cell-based
T1 construct: protein which is expressed from the SMARCA2 and SMARCA4 genes; host or cells: HeLa (SMARCA4-HiBiT engineered line)
T1 sequence (P51532 whole entry, the tested form may be a part): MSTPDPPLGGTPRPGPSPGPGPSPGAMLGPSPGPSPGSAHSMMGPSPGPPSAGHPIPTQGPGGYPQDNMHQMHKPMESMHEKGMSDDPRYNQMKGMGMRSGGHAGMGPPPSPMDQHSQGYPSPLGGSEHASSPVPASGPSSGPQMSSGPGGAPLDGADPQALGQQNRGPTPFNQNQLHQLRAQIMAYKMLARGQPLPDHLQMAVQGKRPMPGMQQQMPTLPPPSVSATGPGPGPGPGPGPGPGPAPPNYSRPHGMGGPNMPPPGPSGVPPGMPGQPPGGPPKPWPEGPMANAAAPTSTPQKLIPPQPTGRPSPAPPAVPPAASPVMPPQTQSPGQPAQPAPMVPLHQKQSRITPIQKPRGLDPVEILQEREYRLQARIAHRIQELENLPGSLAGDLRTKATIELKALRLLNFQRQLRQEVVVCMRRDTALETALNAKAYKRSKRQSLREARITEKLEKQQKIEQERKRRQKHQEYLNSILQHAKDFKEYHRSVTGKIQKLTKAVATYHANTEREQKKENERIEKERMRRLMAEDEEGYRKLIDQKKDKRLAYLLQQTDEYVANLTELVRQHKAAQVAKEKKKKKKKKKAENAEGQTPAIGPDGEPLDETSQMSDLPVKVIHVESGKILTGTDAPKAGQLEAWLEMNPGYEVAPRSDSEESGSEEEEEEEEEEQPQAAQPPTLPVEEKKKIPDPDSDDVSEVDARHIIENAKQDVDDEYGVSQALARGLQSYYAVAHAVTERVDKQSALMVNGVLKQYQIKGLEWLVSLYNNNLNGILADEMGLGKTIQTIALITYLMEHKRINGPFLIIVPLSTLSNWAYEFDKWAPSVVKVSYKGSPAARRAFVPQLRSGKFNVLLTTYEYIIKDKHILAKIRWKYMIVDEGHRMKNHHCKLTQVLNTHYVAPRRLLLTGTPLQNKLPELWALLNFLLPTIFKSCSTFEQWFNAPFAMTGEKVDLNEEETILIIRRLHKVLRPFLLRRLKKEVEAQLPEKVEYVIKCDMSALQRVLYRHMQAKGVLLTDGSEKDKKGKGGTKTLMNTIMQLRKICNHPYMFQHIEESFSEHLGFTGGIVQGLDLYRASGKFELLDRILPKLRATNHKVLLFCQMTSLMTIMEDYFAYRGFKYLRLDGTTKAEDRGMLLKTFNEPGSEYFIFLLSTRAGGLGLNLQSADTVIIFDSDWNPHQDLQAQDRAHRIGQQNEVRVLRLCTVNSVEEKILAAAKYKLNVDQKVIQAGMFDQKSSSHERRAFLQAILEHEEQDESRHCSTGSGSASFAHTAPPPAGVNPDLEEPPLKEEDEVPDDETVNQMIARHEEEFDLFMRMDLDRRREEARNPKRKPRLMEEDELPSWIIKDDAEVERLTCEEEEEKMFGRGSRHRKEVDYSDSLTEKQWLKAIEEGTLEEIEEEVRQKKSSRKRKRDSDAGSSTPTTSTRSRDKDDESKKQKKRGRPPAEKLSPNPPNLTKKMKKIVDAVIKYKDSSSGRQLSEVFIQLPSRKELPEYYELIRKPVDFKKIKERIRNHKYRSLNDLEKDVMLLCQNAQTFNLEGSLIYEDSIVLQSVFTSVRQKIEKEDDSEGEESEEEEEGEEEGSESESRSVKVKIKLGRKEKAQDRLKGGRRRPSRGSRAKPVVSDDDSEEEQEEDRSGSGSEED
How it was run: (§1)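 HiBiT-fusion HeLa lines, 8,000 cells/well, overnight attachment; cpd 10-pt series (typically 10 μM–300 pM), 24 h, 37° C. Lysis with LgBiT + HiBiT substrate, 10 min shaking at RT, luminescence read. DC50 from dose-response fit; % degradation also scored at 1 μM.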

[2] = target: T2, SMARCA2-HiBiT HeLa cells (protein which is expressed from the SMARCA2 gene) (Homo sapiens, UniProt P51531); assay: SMARCA2 degradation assay (HiBiT-fusion HeLa cell line, 24 h, luminescence); type: cell-based
T2 construct: protein which is expressed from the SMARCA2 and SMARCA4 genes; host or cells: HeLa (SMARCA2-HiBiT engineered line)
T2 sequence (P51531 whole entry, the tested form may be a part): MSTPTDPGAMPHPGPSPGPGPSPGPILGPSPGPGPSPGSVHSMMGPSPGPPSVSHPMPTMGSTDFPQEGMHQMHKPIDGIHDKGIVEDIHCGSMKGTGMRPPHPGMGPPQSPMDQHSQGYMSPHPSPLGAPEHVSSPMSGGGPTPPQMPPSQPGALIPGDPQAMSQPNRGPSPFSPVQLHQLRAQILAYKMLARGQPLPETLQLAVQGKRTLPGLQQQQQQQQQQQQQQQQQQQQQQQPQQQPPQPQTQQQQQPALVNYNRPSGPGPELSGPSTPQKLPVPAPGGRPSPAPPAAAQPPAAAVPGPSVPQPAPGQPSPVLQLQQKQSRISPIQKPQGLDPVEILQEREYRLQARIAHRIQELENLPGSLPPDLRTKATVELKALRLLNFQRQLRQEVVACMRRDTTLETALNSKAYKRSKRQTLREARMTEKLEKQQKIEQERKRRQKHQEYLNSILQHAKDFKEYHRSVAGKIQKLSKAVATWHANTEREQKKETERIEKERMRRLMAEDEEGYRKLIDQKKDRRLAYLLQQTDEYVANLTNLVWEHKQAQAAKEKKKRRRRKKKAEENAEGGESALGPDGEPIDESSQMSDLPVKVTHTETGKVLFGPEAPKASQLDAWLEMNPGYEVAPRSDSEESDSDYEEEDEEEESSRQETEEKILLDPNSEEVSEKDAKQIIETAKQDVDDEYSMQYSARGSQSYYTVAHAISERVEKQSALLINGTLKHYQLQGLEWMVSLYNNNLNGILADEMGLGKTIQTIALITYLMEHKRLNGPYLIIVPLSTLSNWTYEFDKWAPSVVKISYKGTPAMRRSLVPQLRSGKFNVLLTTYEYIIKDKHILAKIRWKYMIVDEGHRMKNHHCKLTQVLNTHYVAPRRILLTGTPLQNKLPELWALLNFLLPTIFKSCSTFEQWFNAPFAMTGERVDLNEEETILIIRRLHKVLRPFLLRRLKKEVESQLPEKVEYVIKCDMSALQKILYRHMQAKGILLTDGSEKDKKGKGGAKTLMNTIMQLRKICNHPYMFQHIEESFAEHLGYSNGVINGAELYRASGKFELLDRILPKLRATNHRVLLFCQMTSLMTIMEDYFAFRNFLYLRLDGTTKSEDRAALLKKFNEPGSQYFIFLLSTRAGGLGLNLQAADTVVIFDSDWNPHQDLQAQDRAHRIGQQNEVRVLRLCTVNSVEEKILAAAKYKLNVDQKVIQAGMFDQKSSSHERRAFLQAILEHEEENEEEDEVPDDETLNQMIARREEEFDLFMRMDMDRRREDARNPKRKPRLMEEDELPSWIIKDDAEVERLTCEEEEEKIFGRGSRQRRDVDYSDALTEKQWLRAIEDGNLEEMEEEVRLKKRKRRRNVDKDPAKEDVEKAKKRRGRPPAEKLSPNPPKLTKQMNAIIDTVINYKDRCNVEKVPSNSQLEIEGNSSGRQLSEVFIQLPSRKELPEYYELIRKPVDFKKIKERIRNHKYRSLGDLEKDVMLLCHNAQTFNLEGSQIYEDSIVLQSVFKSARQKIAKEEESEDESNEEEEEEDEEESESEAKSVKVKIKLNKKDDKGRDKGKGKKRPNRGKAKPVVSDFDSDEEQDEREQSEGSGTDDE
How it was run: as §1

| Compound | DC50 [1] [µM] | inhibition at 1 µM ([1]; @ 1 μM) [%] | DC50 [2] [µM] | SMARCA2 % Degradation @ 1 μM ([2]; @ 1 μM) | inhibition at 1 µM ([1]; 1 μM) [%] | SMARCA2 % Degradation @ 1 μM ([2]; 1 μM) |
| --- | --- | --- | --- | --- | --- | --- |
| Cn1nc(C(=O)NCC#Cc2nccc(N3CCN(c4cc(-c5ccccc5O)nnc4N)CC3)n2)cc1C1CC1 [Compound P-6, N-[3-(4-{4-[3-amino-6-(2-hydroxyphenyl)pyridazin-4-yl]piperazin-1-y1}pyrimidin-2-yl)prop-2-yn-1-yl]-5-cyclopropyl-1-methyl-1H-pyrazole-3-carboxamide] | < 0.05 | 30 to 70 | 0.05 to 0.5 | ++ (++=30-70%) | – | – |
| C[C@@H]1CCCN1CC#Cc1nccc(N2CCN(c3cc(-c4ccccc4O)nnc3N)CC[C@H]2C)n1 [Compound P-232, o-{5-[(R)-4-(2-{3-[(R)-2-methyl-1-pyrrolidinyl]-1-propynyl}-4-pyrimidinyl)-5-methyl-1,4-diazepan-1-yl]-6-amino-3-pyridazinyl}phenol] | < 0.05 | 30 to 70 | < 0.05 | +++ (+++=>70%) | – | – |
| C[C@@H]1CCN1CC#Cc1cc(N2CCN(c3cc(-c4ccccc4O)nnc3N)CC[C@H]2C)ccn1 [Compound P-420, 0-{5-[(R)-4-(2-{3-[(R)-2-methyl-1-azetidinyl]-1-propynyl}-4-pyridyl)-5-methyl-1,4-diazepan-1-yl]-6-amino-3-pyridaziny1}phenol] | < 0.05 | – | < 0.05 | – | 30 to 70 | +++ (+++=>70%) |
| CC1(C)CN(c2ccnc(C#CCNC(=O)c3cc4ncccn4n3)n2)CCN1c1cc(-c2ccccc2O)nnc1N [Compound P-83, N-(3-(4-(4-(3-amino-6-(2-hydroxyphenyl)pyridazin-4-yl)-3,3-dimethylpiperazin-1-yl)pyrimidin-2-yl)prop-2-yn-1-yl)pyrazolo[1,5-a]pyrimidine-2-carboxamide] | 0.05 to 0.5 | < 30 | 0.5 to 5 | + (+=<30%) | – | – |
| Nc1nnc(-c2ccccc2O)cc1N1CCC2(CCN(c3ccnc(C#CCNC(=O)c4cc5ncccn5n4)n3)CC2)CC1 [Compound P-42, N-(3-(4-(9-(3-amino-6-(2-hydroxyphenyl)pyridazin-4-yl)-3,9-diazaspiro[5.5]undecan-3-yl)pyrimidin-2-yl)prop-2-yn-1-yl)pyrazolo[1,5-a]pyrimidine-2-carboxamide] | 0.05 to 0.5 | 30 to 70 | 0.05 to 0.5 | ++ (++=30-70%) | – | – |
| Cn1ccc(NCC#Cc2nccc(N3CC4CCC(C3)N4c3cc(-c4ccccc4O)nnc3N)n2)n1 [Compound P-130, 2-(6-amino-5-(3-(2-(3-((1-methyl-1H-pyrazol-3-yl)amino)prop-1-yn-1-yl)pyrimidin-4-yl)-3,8-diazabicyclo[3.2.1]octan-8-yl)pyridazin-3-yl)phenol] | 0.05 to 0.5 | 30 to 70 | 0.05 to 0.5 | +++ (+++=>70%) | – | – |
| CCNC(=O)NCC#Cc1nccc(N2CCCN(c3cc(-c4ccccc4O)nnc3N)CC2)n1 [Compound P-326, 0-[6-amino-5-(4-{2-[3-(3-ethylureido)-1-propynyl]-4-pyrimidinyl}-1,4-diazepan-1-yl)-3-pyridazinyl]phenol] | 0.5 to 5 | < 30 | 0.5 to 5 | ++ (++=30-70%) | – | – |
| Nc1nnc(-c2ccccc2O)cc1N1CCCN(c2ccnc(/C=C/CNC(=O)c3cnc4ccccc4n3)n2)CC1 [Compound P-110, (E)-N-(3-(4-(4-(3-amino-6-(2-hydroxyphenyl)pyridazin-4-yl)-1,4-diazepan-1-yl)pyrimidin-2-yl)allyl)quinoxaline-2-carboxamide] | 0.05 to 0.5 | > 70 | 0.05 to 0.5 | +++ (+++=>70%) | – | – |
| C[C@H]1CCN(c2cc(-c3ccccc3O)nnc2N)CCN1c1ccc(C#N)c(C#CCN(C)CC(F)(F)F)n1 [Compound P-415, 2-{3-[N-methyl(2,2,2-trifluoroethyl)amino]-1-propynyl}-6-{(S)-4-[3-amino-6-(o-hydroxyphenyl)-4-pyridazinyl]-7-methyl-1,4-diazepan-1-yl}nicotinonitrile] | 0.05 to 0.5 | – | 0.05 to 0.5 | – | 30 to 70 | ++ (++=30-70%) |
| Cn1ccnc1C#Cc1nccc(N2CCCN(c3cc(-c4ccccc4O)nnc3N)CC2)n1 [Compound P-354] | 0.5 to 5 | 30 to 70 | 0.5 to 5 | ++ (++=30-70%) | – | – |
| Cc1cc(C)n2ncc(C(=O)NCC#Cc3nccc(N4CCN(c5cc(-c6ccccc6O)nnc5N)CC4)n3)c2n1 [Compound P-70, N-(3-(4-(4-(3-amino-6-(2-hydroxyphenyl)pyridazin-4-yl)piperazin-1-yl)pyrimidin-2-yl)prop-2-yn-1-yl)-5,7-dimethylpyrazolo[1,5-a]pyrimidine-3-carboxamide] | 0.05 to 0.5 | 30 to 70 | 0.05 to 0.5 | ++ (++=30-70%) | – | – |
| CN1C(=O)NC2(CCN(CC#Cc3nccc(N4CCCN(c5cc(-c6ccccc6O)nnc5N)CC4)n3)CC2)C1=O [Compound P-362, 8-[3-(4-{4-[3-amino-6-(o-hydroxyphenyl)-4-pyridazinyl]-1,4-diazepan-1-yl}-2-pyrimidinyl)-2-propynyl]-3-methyl-1,3,8-triaza-2,4-spiro [4.5]decanedione] | 0.5 to 5 | 30 to 70 | 0.05 to 0.5 | ++ (++=30-70%) | – | – |
| C[C@H]1CCN(c2cc(-c3ccccc3O)nnc2N)CCN1c1ccc(C#N)c(C#CCN2CC[C@H](F)C2)n1 [Compound P-411, 6-{(S)-4-[3-amino-6-(o-hydroxyphenyl)-4-pyridazinyl]-7-methyl-1,4-diazepan-1-yl}-2-{3-[(S)-3-fluoro-1-pyrrolidinyl]-1-propynyl} nicotinonitrile] | 0.05 to 0.5 | – | 0.05 to 0.5 | – | < 30 | ++ (++=30-70%) |
| CC(C)(C)OC(=O)N1CC(C#Cc2nccc(N3CCCN(c4cc(-c5ccccc5O)nnc4N)CC3)n2)C1 [Compound P-371, tert-butyl 3-[2-(4-{4-[3-amino-6-(o-hydroxyphenyl)-4-pyridaziny1]-1,4-diazepan-1-yl}-2-pyrimidinyl)ethynyl]-1-azetidinecarboxylate] | 0.05 to 0.5 | 30 to 70 | 0.05 to 0.5 | +++ (+++=>70%) | – | – |
| C[C@H]1CN(c2ccnc(C#CCNc3ccn(C)n3)n2)CCN1c1cc(-c2ccccc2O)nnc1N [Compound P-328, 0-{5-[(S)-2-methyl-4-{2-[3-(1-methyl-3-pyrazolylamino)-1-propynyl]-4-pyrimidinyl}-1-piperazinyl]-6-amino-3-pyridazinyl}phenol] | 0.05 to 0.5 | 30 to 70 | 0.05 to 0.5 | ++ (++=30-70%) | – | – |
| Cn1cc(C#Cc2nccc(N3CCCN(c4cc(-c5ccccc5O)nnc4N)CC3)n2)cn1 [Compound P-346, 0-[6-amino-5-(4-{2-[2-(1-methyl-4-pyrazolyl)ethynyl]-4-pyrimidinyl}-1,4-diazepan-1-yl)-3-pyridazinyl]phenol] | 0.5 to 5 | < 30 | 0.5 to 5 | ++ (++=30-70%) | – | – |
